Results from patent publication US6413990B1, “Arylsulphonamide-substituted benzimidazoles having tryptase-inhibiting activity” (Boehringer Ingelheim Pharma KG, priority 1999, dated 2002).

Columns and labels:
rh beta tryptase = molecular target: T1, rh beta tryptase (Homo sapiens, UniProt Q15661); assay: tryptase inhibition test (cleavage of N-p-tosyl-Gly-Pro-Lys-para-nitroaniline, p-nitroaniline measured at 405 nm); assay type: biochemical; conditions: Tris HCl buffer pH 7.4 with calcium and heparin, 37° C., substrate 0.6 mM, 5 minutes pre-incubation, 5 minutes incubation
T1 construct: purchased Promega
Description: The compounds according to the invention are characterised by their tryptase-inhibiting activity. This ability to inhibit tryptase was investigated using the test described below.
The measurement is carried out in Tris HCl buffer (100 mM), which additionally contains calcium (5 mM) and heparin ([…]), at pH 7.4. The standard used is rh beta tryptase which may be obtained commercially from Promega, for example. The substrate used is N-p-tosyl-Gly-Pro-Lys-para-nitroaniline in a concentration of 0.6 mM. The substrate is digested with tryptase to form p-nitroaniline which can be measured at 405 nm. Usually, an incubation period of 5 minutes and an incubation temperature of 37° C. are chosen. The enzyme activity used is 0.91 U/ml. The measurements are carried out in an Autoanalyser (Cobas Bio) made by Hofmann LaRoche. The potential inhibitory substances are used in concentrations of 10 μM in the screening, the inhibition of the tryptase being given in percent. The IC50 is determined at over 70% inhibition (concentration at which 50% of the enzyme activity is inhibited). After 5 minutes pre-incubation of the potential inhibitory substances, the substrate is added to start the reaction, the formation of p-nitroaniline being taken as a measurement of the enzyme activity after 5 minutes, after testing the linearity.
The data obtained after carrying out the tests described above (IC50 values) can be found in Table 2.

T1 sequence (Q15661 31-275): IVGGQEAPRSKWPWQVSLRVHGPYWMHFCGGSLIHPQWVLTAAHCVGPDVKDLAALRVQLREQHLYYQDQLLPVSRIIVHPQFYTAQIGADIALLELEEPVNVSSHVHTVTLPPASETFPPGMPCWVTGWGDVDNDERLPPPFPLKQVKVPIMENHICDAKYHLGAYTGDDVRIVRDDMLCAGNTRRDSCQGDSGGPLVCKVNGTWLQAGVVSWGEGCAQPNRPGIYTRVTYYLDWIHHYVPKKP

Compound	IC50 (rh beta tryptase) [nM]	melting point [°C]
CCN(CC)CCN(c1ccc2c(c1)nc(CCc1ccc(C(=N)N)cc1)n2C)S(=O)(=O)c1ccc(Cl)cc1 [Example 10, N-{2-[2-(4-amidinophenyl)-ethyl]-1-methyl-benzimidazol-5-yl}-N-diethylaminoethyl-(4-chloro-benzenesulphonamide)]	49	88 to 90
CCN(CC)CCN(c1ccc2c(c1)nc(CCc1ccc(C(N)=NO)cc1)n2C)S(=O)(=O)c1cccc(Br)c1 [Example 36, N-{2-[2-(4-amino-hydroximinomethyl)phenyl-ethyl]-1-methyl-benzimidazol-5-yl}-N-diethylaminoethyl-(3-bromo-benzenesulphonamide)]		156
